From ChEMBL document CHEMBL6178022, “Discovery and Optimization of Potent PROTAC Degraders of Phosphoinositide 3-Kinase with Significant in Vivo Anticancer Efficacy” (J Med Chem, 2025)
Blank lines part the entries; values can stand above or below the molecule they belong to.

How the values were obtained:
Pfeiffer = test: Antiproliferative activity against human Pfeiffer cells assessed as inhibition of cell viability incubated for 3 days by MTT/CTG assay; conditions: 72 h
[1] = Oral bioavailability in ICR mouse at 30 mg/kg measured for 24 hrs by LC-MS/MS analysis; type: ADME, organism-based; conditions: in vivo
[2] = Toxicity in male BALB/c nude mouse model xenografted with human DOHH-2 cells assessed as drug tolerance at 30 mg/kg, ip qd treated for 21 days consecutively; type: organism-based; conditions: in vivo, 504 h, time 21 day
[3] = Metabolic stability in rat plasma at 2 uM measured up to 60 mins by LC-MS/MS analysis; type: ADME, cell-free; conditions: 1 h
[4] = Toxicity in male BALB/c nude mouse model xenografted with human DOHH-2 cells assessed as body weight loss at 30 mg/kg, ip qd treated for 21 days consecutively; type: organism-based; conditions: in vivo, 504 h, time 21 day
DOHH-2 = test: Antitumor activity against human DOHH-2 cells xenografted in male BALB/c nude mouse model at 30 mg/kg, ip qd treated for 21 days consecutively relative to control; type: functional; conditions: DOHH-2, 504 h, time 21 day, read-out: TGI
[5] = Metabolic stability in dog liver microsomes assessed as half life at 2 uM measured up to 60 mins by LC-MS/MS analysis; type: ADME, Canis lupus familiaris, Microsome
[6] = AUC (0 to t) in ICR mouse at 30 mg/kg, ip measured for 24 hrs by LC-MS/MS analysis; type: ADME, organism-based; conditions: in vivo
[7] = MRT (0 to t) in Sprague-Dawley rat at 1.5 mg/kg, iv measured for 24 hrs by LC-MS/MS analysis; type: ADME, organism-based; conditions: in vivo
[8] = Drug metabolism in monkey liver microsomes at 2 uM measured up to 60 mins in absence of NADPH by LC-MS/MS analysis; type: ADME, Macaca mulatta, Microsome; conditions: rhesus monkey, 1 h
HGC-27 [9] = test: Antitumor activity against human HGC-27 cells xenografted in male BALB/c nude mouse model at 60 mg/kg, ip qd treated for 14 days consecutively relative to control; type: functional; conditions: HGC-27, 336 h, time 14 day, read-out: TGI
[10] = Toxicity in C57BL/6J mouse assessed as body weight change at 100 mg/kg, ip treated daily for 7 days; type: organism-based; conditions: in vivo, 168 h, time 7 day
Mus musculus = test: In vivo PROTAC activity at CRBN/PI3K-alpha in human HGC-27 cells xenografted in male BALB/c nude mouse model assessed as PI3K-alpha degradation administered intraperitoneally once daily for 14 days consecutively; type: functional, organism-based; conditions: dose 30-60 mg/kg, route ip, time 14.0 day
[11] = Oral bioavailability in Sprague-Dawley rat at 15 mg/kg measured for 24 hrs by LC-MS/MS analysis; type: ADME, organism-based; conditions: in vivo
AGS = test: Antiproliferative activity against human AGS cells assessed as inhibition of cell viability incubated for 3 days by MTT/CTG assay; conditions: 72 h
[12] = Drug metabolism in dog liver microsomes at 2 uM measured up to 60 mins in absence of NADPH by LC-MS/MS analysis; type: ADME, Canis lupus familiaris, Microsome; conditions: 1 h
hERG (KCNH2) = hERG (KCNH2) (Homo sapiens, UniProt Q12809); test: Inhibition of hERG stably expressed in HEK293 cells at 10 uM by whole-cell patch-clamp technique relative to control; type: toxicity, cell-based; conditions: HEK293 cells stably expressing hERG
hERG (KCNH2), sequence (Q12809 whole entry): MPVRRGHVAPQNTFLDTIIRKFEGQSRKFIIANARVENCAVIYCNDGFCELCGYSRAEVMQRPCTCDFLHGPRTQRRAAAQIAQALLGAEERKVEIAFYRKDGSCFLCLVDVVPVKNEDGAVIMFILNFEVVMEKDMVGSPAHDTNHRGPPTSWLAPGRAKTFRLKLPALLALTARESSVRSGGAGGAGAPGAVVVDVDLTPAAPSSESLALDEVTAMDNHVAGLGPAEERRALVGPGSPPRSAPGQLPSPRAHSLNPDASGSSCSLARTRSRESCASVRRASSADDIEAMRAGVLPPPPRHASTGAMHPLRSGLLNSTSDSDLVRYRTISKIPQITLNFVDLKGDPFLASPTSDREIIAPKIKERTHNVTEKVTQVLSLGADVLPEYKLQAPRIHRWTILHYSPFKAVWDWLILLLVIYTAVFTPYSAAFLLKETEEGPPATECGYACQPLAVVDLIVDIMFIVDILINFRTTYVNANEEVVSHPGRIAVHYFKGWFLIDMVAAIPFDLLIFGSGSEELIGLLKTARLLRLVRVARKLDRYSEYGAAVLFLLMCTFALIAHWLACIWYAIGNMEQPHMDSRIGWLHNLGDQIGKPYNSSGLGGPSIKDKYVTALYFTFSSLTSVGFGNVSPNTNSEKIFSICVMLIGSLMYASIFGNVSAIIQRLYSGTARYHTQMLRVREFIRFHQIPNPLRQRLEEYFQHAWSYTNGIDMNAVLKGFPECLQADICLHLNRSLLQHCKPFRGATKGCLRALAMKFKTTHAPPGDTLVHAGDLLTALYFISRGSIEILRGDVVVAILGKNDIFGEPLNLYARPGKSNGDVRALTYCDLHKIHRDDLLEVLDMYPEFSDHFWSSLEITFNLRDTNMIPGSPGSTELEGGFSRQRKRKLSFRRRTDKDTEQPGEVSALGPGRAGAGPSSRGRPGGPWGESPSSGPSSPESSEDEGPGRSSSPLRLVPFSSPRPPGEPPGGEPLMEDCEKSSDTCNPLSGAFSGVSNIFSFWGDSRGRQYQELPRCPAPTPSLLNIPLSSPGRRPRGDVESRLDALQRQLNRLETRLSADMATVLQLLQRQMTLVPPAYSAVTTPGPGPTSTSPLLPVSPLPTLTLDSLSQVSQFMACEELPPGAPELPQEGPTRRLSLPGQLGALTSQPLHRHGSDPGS

T47D [13] = test: Antiproliferative activity against human T47D cells assessed as inhibition of cell viability incubated for 3 days by MTT/CTG assay; conditions: 72 h
[14] = MRT (0 to t) in ICR mouse at 3 mg/kg, iv measured for 24 hrs by LC-MS/MS analysis; type: ADME, organism-based; conditions: in vivo
[15] = Toxicity in male BALB/c nude mouse model xenografted with human HGC-27 cells assessed as drug tolerance at 30 to 60 mg/kg, ip qd treated for 14 days consecutively; type: organism-based; conditions: in vivo, 336 h, dose 30-60 mg/kg, time 14 day
[16] = Terminal half life in Sprague-Dawley rat at 1.5 mg/kg, iv measured for 24 hrs by LC-MS/MS analysis; type: ADME, organism-based; conditions: in vivo, read-out: beta t1/2 (converted)
[17] = Terminal half life in Sprague-Dawley rat at 15 mg/kg, ip measured for 24 hrs by LC-MS/MS analysis; type: ADME, organism-based; conditions: in vivo, read-out: beta t1/2 (converted)
LNCaP = test: Antiproliferative activity against human LNCaP cells assessed as inhibition of cell viability incubated for 3 days by MTT/CTG assay; conditions: 72 h
[18] = Toxicity in male BALB/c nude mouse model xenografted with human HGC-27 cells assessed as body weight change at 30 to 60 mg/kg, ip qd treated for 14 days consecutively; type: organism-based; conditions: in vivo, 336 h, dose 30-60 mg/kg, time 14 day
T47D [19] = test: Effect on PI3K-alpha mRNA level in human T47D cells at 1 uM incubated for 24 hrs by RT-PCR analysis; type: functional, cell-based
[20] = AUC (0 to t) in Sprague-Dawley rat at 1.5 mg/kg, iv measured for 24 hrs by LC-MS/MS analysis; type: ADME, organism-based; conditions: in vivo
[21] = Drug metabolism in mouse liver microsomes at 2 uM measured up to 60 mins in absence of NADPH by LC-MS/MS analysis; type: ADME, Microsome; conditions: 1 h
[22] = molecular target: Voltage-gated inwardly rectifying potassium channel KCNH2 (Homo sapiens, UniProt Q12809); test: Inhibition of hERG stably expressed in HEK293 cells by whole-cell patch-clamp technique; type: toxicity, cell-based
Voltage-gated inwardly rectifying potassium channel KCNH2, sequence (Q12809 whole entry): as above

[23] = Cmax in ICR mouse at 30 mg/kg, ip measured for 24 hrs by LC-MS/MS analysis; type: ADME, organism-based; conditions: in vivo
[24] = Cytotoxicity against human AC16 [Human hybrid] cells; type: toxicity, cell-based
[25] = Metabolic stability in monkey liver microsomes assessed as half life at 2 uM measured up to 60 mins by LC-MS/MS analysis; type: ADME, Macaca mulatta, Microsome; conditions: rhesus monkey
[26] = MRT (0 to t) in Sprague-Dawley rat at 15 mg/kg, ip measured for 24 hrs by LC-MS/MS analysis; type: ADME, organism-based; conditions: in vivo
[27] = AUC (0 to t) in ICR mouse at 3 mg/kg, iv measured for 24 hrs by LC-MS/MS analysis; type: ADME, organism-based; conditions: in vivo
[28] = Metabolic stability in mouse liver microsomes assessed as half life at 2 uM measured up to 60 mins by LC-MS/MS analysis; type: ADME, Microsome
HGC-27 [29] = test: Antiproliferative activity against human HGC-27 cells assessed as inhibition of cell viability incubated for 3 days by MTT/CTG assay; conditions: HGC-27, 72 h
[30] = Metabolic stability in human liver microsomes assessed as half life at 2 uM measured up to 60 mins by LC-MS/MS analysis; type: ADME, Microsome
T47D [31] = test: Induction of cell cycle arrest in human T47D cells assessed as accumulation at G2/M phase incubated for 24 hrs by PI staining based flow cytometry; type: functional; conditions: dose 0.1-10 µM
[32] = Toxicity in C57BL/6J mouse administered intraperitoneally for 7 days; conditions: in vivo, route ip, time 7 day
[33] = AUC (0 to t) in Sprague-Dawley rat at 15 mg/kg, ip measured for 24 hrs by LC-MS/MS analysis; type: ADME, organism-based; conditions: in vivo
[34] = Metabolic stability in human plasma at 2 uM measured up to 60 mins by LC-MS/MS analysis; type: ADME, cell-free; conditions: 1 h
MDA-MB-453 = test: Antiproliferative activity against human MDA-MB-453 cells assessed as inhibition of cell viability incubated for 3 days by MTT/CTG assay; conditions: MDA-MB-453, 72 h
[35] = molecular target: Phosphatidylinositol 4,5-bisphosphate 3-kinase catalytic subunit gamma isoform (Homo sapiens, UniProt P48736); test: Inhibition of PI3K-gamma (unknown origin) by kinase selectivity profiling analysis
Phosphatidylinositol 4,5-bisphosphate 3-kinase catalytic subunit gamma isoform, sequence (P48736 whole entry, canonical isoform): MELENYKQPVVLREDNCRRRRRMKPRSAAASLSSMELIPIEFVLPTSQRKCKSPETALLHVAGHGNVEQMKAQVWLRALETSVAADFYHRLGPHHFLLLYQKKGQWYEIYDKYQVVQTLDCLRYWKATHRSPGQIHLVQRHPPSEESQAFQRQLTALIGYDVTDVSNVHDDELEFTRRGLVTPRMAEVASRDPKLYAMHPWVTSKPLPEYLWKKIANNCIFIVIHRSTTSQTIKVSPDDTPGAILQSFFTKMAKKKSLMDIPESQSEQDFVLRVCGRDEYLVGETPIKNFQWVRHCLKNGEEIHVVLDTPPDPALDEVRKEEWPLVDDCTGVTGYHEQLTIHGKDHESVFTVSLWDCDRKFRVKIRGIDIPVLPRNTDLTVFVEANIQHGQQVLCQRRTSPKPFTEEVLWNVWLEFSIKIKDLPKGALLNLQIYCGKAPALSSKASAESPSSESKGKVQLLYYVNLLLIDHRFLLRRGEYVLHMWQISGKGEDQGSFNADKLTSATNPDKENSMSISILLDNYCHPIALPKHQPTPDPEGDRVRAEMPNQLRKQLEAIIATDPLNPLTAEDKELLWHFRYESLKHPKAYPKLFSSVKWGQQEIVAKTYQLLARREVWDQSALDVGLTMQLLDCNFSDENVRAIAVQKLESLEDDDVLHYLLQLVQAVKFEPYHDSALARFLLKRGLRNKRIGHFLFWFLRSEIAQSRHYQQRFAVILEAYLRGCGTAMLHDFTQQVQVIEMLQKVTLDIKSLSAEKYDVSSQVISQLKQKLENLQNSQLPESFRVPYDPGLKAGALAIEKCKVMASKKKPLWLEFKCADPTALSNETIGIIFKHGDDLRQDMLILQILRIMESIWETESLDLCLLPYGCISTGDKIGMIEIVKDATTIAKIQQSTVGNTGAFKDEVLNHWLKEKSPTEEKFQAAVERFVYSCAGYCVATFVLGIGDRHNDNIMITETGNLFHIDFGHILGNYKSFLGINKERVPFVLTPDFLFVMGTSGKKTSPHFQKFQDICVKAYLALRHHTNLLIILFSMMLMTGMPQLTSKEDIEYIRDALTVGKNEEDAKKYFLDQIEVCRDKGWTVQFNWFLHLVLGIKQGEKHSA

[36] = MRT (0 to t) in ICR mouse at 30 mg/kg, ip measured for 24 hrs by LC-MS/MS analysis; type: ADME, organism-based; conditions: in vivo
[37] = Metabolic stability in monkey plasma at 2 uM measured up to 60 mins by LC-MS/MS analysis; type: ADME, cell-free, Macaca mulatta; conditions: rhesus monkey, 1 h
[38] = Drug metabolism in human liver microsomes at 2 uM measured up to 60 mins in absence of NADPH by LC-MS/MS analysis; type: ADME, Microsome; conditions: 1 h
PC-3 = test: Antiproliferative activity against human PC-3 cells assessed as inhibition of cell viability incubated for 3 days by MTT/CTG assay; conditions: PC-3, 72 h
[39] = Cmax in Sprague-Dawley rat at 15 mg/kg, ip measured for 24 hrs by LC-MS/MS analysis; type: ADME, organism-based; conditions: in vivo
[40] = Metabolic stability in dog plasma at 2 uM measured up to 60 mins by LC-MS/MS analysis; type: ADME, cell-free, Canis lupus familiaris; conditions: 1 h
[41] = Metabolic stability in rat liver microsomes assessed as half life at 2 uM measured up to 60 mins by LC-MS/MS analysis; type: ADME, Microsome
[42] = Drug metabolism in rat liver microsomes at 2 uM measured up to 60 mins in absence of NADPH by LC-MS/MS analysis; type: ADME, Microsome; conditions: 1 h
[43] = Terminal half life in ICR mouse at 3 mg/kg, iv measured for 24 hrs by LC-MS/MS analysis; type: ADME, organism-based; conditions: in vivo, read-out: beta t1/2 (converted)
[44] = Terminal half life in ICR mouse at 30 mg/kg, ip measured for 24 hrs by LC-MS/MS analysis; type: ADME, organism-based; conditions: in vivo, read-out: beta t1/2
[45] = Metabolic stability in mouse plasma at 2 uM measured up to 60 mins by LC-MS/MS analysis; type: ADME, cell-free; conditions: 1 h
HGC-27 [46] = test: Antitumor activity against human HGC-27 cells xenografted in male BALB/c nude mouse model at 30 mg/kg, ip qd treated for 14 days consecutively relative to control; type: functional; conditions: HGC-27, 336 h, time 14 day, read-out: TGI

SMILES: COc1ncc(-c2cc(OCCCCCCCCCCCCNc3cccc4c3C(=O)N(C3CCC(=O)NC3=O)C4=O)c3ncnc(C)c3c2)cc1NS(=O)(=O)c1ccc(F)cc1F (stereo unspecified)
- IC50 (Pfeiffer): 690 nM
- bioavailability [1]: 20%
- Activity [2]: Non-toxic
- Stability [3]: Stable
- Activity [4]: Non-toxic
- inhibition in vivo at 30 mg/kg (DOHH-2): 61.8%
- half-life at 2 µM [5]: 1.12 h
- AUC(0-t) at 24 h [6]: 26300 ng·h/mL
- MRT last at 24 h [7]: 1.98 h
- Drug metabolism [8]: metabolite_notdetected
- inhibition in vivo at 60 mg/kg (HGC-27 [9]): 56.8%
- Activity [10]: Non-toxic
- Activity (Mus musculus): Dose-dependent-effect
- bioavailability [11]: 46.4%
- IC50 (AGS): 370 nM
- Drug metabolism [12]: metabolite_notdetected
- inhibition at 10 µM (hERG (KCNH2)): 10.2%
- IC50 (T47D [13]): 350 nM
- MRT last at 24 h [14]: 6.69 h
- Activity [15]: Non-toxic
- half-life [16]: 2.11 h
- half-life [17]: 4.28 h
- IC50 (LNCaP): 3380 nM
- Activity [18]: Non-toxic
- Activity (T47D [19]): No effect
- AUC(0-t) at 24 h [20]: 1120 ng·h/mL
- Drug metabolism [21]: metabolite_notdetected
- IC50 [22]: > 10000 nM
- Cmax [23]: 1420 ng/mL
- IC50 [24]: > 50000 nM
- half-life at 2 µM [25]: 0.542 h
- MRT last at 24 h [26]: 6.05 h
- AUC(0-t) at 24 h [27]: 12700 ng·h/mL
- half-life at 2 µM [28]: 0.377 h
- IC50 (HGC-27 [29]): 1450 nM
- half-life at 2 µM [30]: 0.578 h
- Activity (T47D [31]): Dose-dependent-effect
- MTD at 168 h [32]: > 100 mg/kg
- AUC(0-t) at 24 h [33]: 5490 ng·h/mL
- Stability [34]: Stable
- IC50 (MDA-MB-453): 1640 nM
- IC50 [35]: > 10000 nM
- MRT last at 24 h [36]: 10.7 h
- Stability [37]: Stable
- Drug metabolism [38]: metabolite_notdetected
- IC50 (PC-3): 1480 nM
- Cmax [39]: 555 ng/mL
- Stability [40]: Stable
- half-life at 2 µM [41]: 0.762 h
- Drug metabolism [42]: metabolite_notdetected
- half-life [43]: 7.88 h
- half-life [44]: > 24 h
- Stability [45]: Stable
- inhibition in vivo at 30 mg/kg (HGC-27 [46]): 38.3%

- IC50 (AGS): 520 nM
- IC50 (T47D [13]): 360 nM
- IC50 (LNCaP): 15800 nM
- IC50 (MDA-MB-453): 770 nM
- IC50 (PC-3): 13200 nM
SMILES: Cc1nc(NC(=O)N2CCC[C@H]2C(N)=O)sc1-c1ccnc(C(C)(C)C(F)(F)F)c1 [ALPELISIB]
- IC50 (Pfeiffer): > 50000 nM
- IC50 (HGC-27 [29]): 1920 nM
